From the NIST ThermoML archive (doi:10.1016/j.jct.2009.07.001)
Numbers after ± are expanded uncertainties.

Assay: excess molar enthalpy (molar enthalpy of mixing); xn = mol fraction of the nth substance listed
Conditions: 298.15 K, 101 kPa, Liquid, Calvet calorimetry

CCCCCCCCCCO [decan-1-ol] + CCCCOCCCC
Conditions | excess molar enthalpy [kJ/mol]
x1 = 0.0549 | 0.347 ± 0.014
x1 = 0.1045 | 0.546 ± 0.022
x1 = 0.1508 | 0.667 ± 0.027
x1 = 0.1992 | 0.754 ± 0.031
x1 = 0.2491 | 0.81 ± 0.033
x1 = 0.2975 | 0.853 ± 0.035
x1 = 0.3443 | 0.864 ± 0.035
x1 = 0.3964 | 0.87 ± 0.035
x1 = 0.4484 | 0.896 ± 0.037
x1 = 0.4966 | 0.834 ± 0.034
x1 = 0.5428 | 0.777 ± 0.032
x1 = 0.5887 | 0.732 ± 0.03
x1 = 0.646 | 0.657 ± 0.027
x1 = 0.6819 | 0.609 ± 0.025
x1 = 0.7402 | 0.514 ± 0.021
x1 = 0.7812 | 0.442 ± 0.018
x1 = 0.8272 | 0.345 ± 0.014
x1 = 0.8767 | 0.249 ± 0.01
x1 = 0.9225 | 0.149 ± 0.006
